Laboratory results taken from patent US5071845A, “Benzoxazepine derivative” (Suntory Limited, priority 1988, dated 1991).
pIC50: −log10 of the molar value.

The compounds below were run against T1, 5HT1A serotonin receptor (Rattus norvegicus, UniProt P19327) (assay: Affinity for Serotonin Receptor ([3H]8-OH-DPAT binding, rat cerebral cortex homogenate)). Details: [3H]8-OH-DPAT 0.4 nM, 25° C., 30 minutes.
T1 construct: To the cerebral cortex enucleated from a Wistarstrain male rat; from tissue; host or cells: cerebral cortex of male Wistar rat, washed membrane homogenate
T1 sequence (P19327 1-422): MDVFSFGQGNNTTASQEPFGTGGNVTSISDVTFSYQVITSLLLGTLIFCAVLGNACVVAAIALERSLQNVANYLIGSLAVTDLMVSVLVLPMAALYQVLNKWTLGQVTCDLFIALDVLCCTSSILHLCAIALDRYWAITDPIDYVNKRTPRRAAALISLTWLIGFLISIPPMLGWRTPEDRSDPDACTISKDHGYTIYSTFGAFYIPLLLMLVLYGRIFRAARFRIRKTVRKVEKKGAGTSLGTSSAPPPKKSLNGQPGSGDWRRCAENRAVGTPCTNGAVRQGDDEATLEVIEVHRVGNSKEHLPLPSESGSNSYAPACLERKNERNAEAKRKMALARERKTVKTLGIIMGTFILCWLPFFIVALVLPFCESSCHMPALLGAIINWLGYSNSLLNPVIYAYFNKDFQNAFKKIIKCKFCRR
Set-up: species or system rat (Wistar strain, male)
Experimental: The test was conducted according to the method of S. T. Perouka (J. Neurochem., 47, 529-540 (1986)).
To the cerebral cortex enucleated from a Wistarstrain male rat was added 50 mM Tris-HCl (pH 7.7) buffer and the mixture was homogenized by using Polytron®. The homogenate was centrifuged at 40,000 G for 10 minutes, and to the obtained precipitate was added the same buffer to effect homogenization, followed by incubation at 37° C. for 30 minutes. The suspension was centrifuged again at 40,000 G for 10 minutes, and to the obtained precipitate was added the same buffer to effect homogenization, followed by centrifugation at 40,000 G for 10 minutes. To the final obtained precipitate was added 50 mM Tris-HCl (10 μm pargyline, 4 mM CaCl2, 0.1% ascorbic acid) (pH 7.4) buffer, to effect homogenization, and the homogenate was used for the binding test. The (^3 H) 8-OH-DPAT used for the binding test was 0.4 nM, with a protein amount of 0.4 to 0.6 mg/ml, and a total amount of 1 ml. After incubation at 25° C. for 30 minutes, the mixture was filtered by a filtration method using a Whatman GF/B filter, and the filter was washed three times with 5 ml of the same buffer.
To the filter was added a scintillation cocktail, and a measurement was conducted by a liquid scintillation counter.

| pIC50 | Structure (SMILES) |
| --- | --- |
| 8.21 | O=C1c2ccccc2OCCN1CCCCN1CCN(c2ccccn2)CC1 [Example 27, 4-(4-(4-(2-pyridyl)piperazinyl)butyl)-2,3,4,5-tetrahydro-1,4-benzoxazepine-5-one] |
| 8.58 | COc1ccccc1N1CCN(CCCCN2CCOc3ccccc3C2=O)CC1 [Example 30] |
| 8.64 | O=C1COc2ccccc2C(=O)N1CCCCN1CCN(c2ccccc2Cl)CC1 [Example 36, 4-(4-(4-(2-chlorophenyl)piperazinyl)butyl)-2,3,4,5-tetrahydro-1,4-benzoxazepine-3,5] |
| 8.85 | O=C1COc2ccccc2C(=O)N1CCCCN1CCN(c2cccc(Cl)c2)CC1 [Example 39] |
| 8.61 | O=C1COc2ccccc2C(=O)N1CCCCN1CCN(c2ccc(F)cc2)CC1 [Example 43, 4-(4-(4-(4-fluorophenyl)piperazinyl)-butyl)-2,3,4,5-tetrahydro-1,4-benzoxazepine-3,5] |
| 8.56 | O=C1COc2ccccc2C(=O)N1CCCCN1CCN(c2ncccc2Cl)CC1 [Example 48] |
| 8.43 | O=C1COc2ccccc2C(=O)N1CCCCN1CCN(c2ncccn2)CC1 [Example 52, 4-(4-(4-(2-pyrimidinyl)piperazinyl)butyl)-2,3,4,5-tetrahydro-1,4-benzoxazepine-3,5-d] |
| 8.31 | COc1ccc2c(c1)C(=O)N(CCCCN1CCN(c3ncccc3Cl)CC1)C(=O)CO2 [Example 54, 7-methoxy-4-(4-(4-(3-chloro-2-pyridyl)-piperazinyl)butyl)-2,3,4,5-tetrahydro-1,4-benzoxazepine-3,5-dione] |
| 8.30 | COc1ccc2c(c1)C(=O)N(CCCCN1CCN(c3ncccn3)CC1)C(=O)CO2 [Example 58, 7-methoxy-4-(4-(4-(2-pyrimidinyl)piperazinyl)butyl)-2,3,4,5-tetrahydro-1,4-benzoxaze-3,5-dione] |
| 8.75 | O=C1COc2cc(Cl)ccc2C(=O)N1CCCCN1CCN(c2ccccn2)CC1 [Example 59, 8-chloro-4-(4-(4-(2-pyridyl)piperazinyl)butyl)-2,3,4,5-tetrahydro-1,4-benzoxazepine-3,5-dione] |
| 8.39 | O=C1COc2cc(Cl)ccc2C(=O)N1CCCCN1CCN(c2ncccn2)CC1 [Example 64, 8-chloro-4-(4-(4-(2-pyrimidinyl)piperazinyl)butyl)-2,3,4,5-tetrahydro-1,4-benzoxazepine-3,5-dione] |
| 8.81 | Cc1ccc2c(c1)OCC(=O)N(CCCCN1CCN(c3ccccn3)CC1)C2=O [Example 65, 8-methyl-4-(4-(4-(2-pyridyl)piperazinyl)butyl)-2,3,4,5-tetrahydro-1,4-benzoxazepine-3,5-dione] |
| 8.32 | Cc1ccc2c(c1)OCC(=O)N(CCCCN1CCN(c3ncccn3)CC1)C2=O [Example 70, 8-methyl-4-(4-(4-(2-pyrimidinyl)piperazinyl)butyl)-2,3,4,5-tetrahydro-1,4-benzoxazepine-3,5-dione] |
| 8.37 | COc1ccc2c(c1)OCC(=O)N(CCCCN1CCN(c3ncccn3)CC1)C2=O [Example 72, 8-methoxy-4-(4-(4-(2-pyrimidinyl)piperazinyl)butyl)-2,3,4,5-tetrahydro-1,4-benzoxazepine-3,5-dione] |
| 8.38 | COc1ccnc(N2CCN(CCCCN3C(=O)COc4ccccc4C3=O)CC2)n1 [Example 83, 4-(4-(4-(4-methoxy-2-pyrimidinyl)piperazinyl)butyl)-2,3,4,5-tetrahydro-1,4-benzoxazepine-3,5-dione] |
